Experimental data from patent US20090074815A1, “Immunomodulator Compounds as Vaccine Enhancers” (SCICLONE PHARMACEUTICALS, INC., priority 2005, published 2009).
Like-named read-outs stand apart in the source and are kept apart here.

Columns and labels:
[1] = tested on: IFN-γ production by OvA-stimulated splenocytes; experiment: OvA-stimulated production of IFN-γ by splenocytes of OvA-immunized mice; assay type: in vivo; conditions: for activity at 0.0001 mg/kg / activity at 0.001 mg/kg / activity at 0.01 mg/kg: Mus musculus, Splenocyte, po, read-out: Production of IFN-γ by splenocytes, % (% of control)
[2] = tested on: IL-10 production by OvA-stimulated splenocytes; experiment: OvA-stimulated production of IL-10 by splenocytes of OvA-immunized mice; conditions: Mus musculus, Splenocyte, po, read-out: Production of IL-10 by splenocytes, % (% of control), OvA/Alum; for activity at 0.0001 mg/kg: 0.1 μg/kg per os; for activity at 0.001 mg/kg: 1.0 μg/kg per os; for activity at 0.01 mg/kg: 10.0 μg/kg per os
Procedure: The OvA was administered subcutaneously to the crest in a volume of 200 μl. Mice were immunized on day 1 with OvA in complete Freund's adjuvant (CFA; Sigma) and on day 15 with the antigen in incomplete Freund's adjuvant (IFA; Sigma). The immune response was analyzed on day 29. Mice were also immunized with 10 μg/mouse of OvA using Alum as an adjuvant.
Thymuses and spleens from mice of each treatment group were pooled, and then minced with scissors. The minced tissues were suspended in sterile PBS to form cell suspensions, filtered through a double gauze layer and centrifuged. Cells were washed twice with PBS, re-suspended in RPMI-1640 (Sigma) with 2.0 mM of L-glutamine, 50 μM of mercaptoethanol, and 10 μg/ml of gentamycin (complete medium); and cell counts were made. (The splenocyte suspension was washed with a 0.86% solution of NH4Cl to pre-lyse erthrocytes.)
Assessment of Mitogen- and Antigen-Induced Production of Cytokines: Thymic cells (1×10^6/well) in complete medium with 2% FCS were stimulated with ConA (0, 1, and 2 μg/ml). Splenocytes (1×10^6/well) in complete medium with 5% FCS were stimulated with ConA (0, 1, and 5 μg/ml) and with OvA (0-100 μg/ml). […] Supernatants from OvA-stimulated cultures were collected after 72 hours. Supernatants from both cultures were frozen, and kept at 20° C. Concentrations of IL-2, IL-4, IL-10, IL-12R40 and IFNγ in the supernatants were determined by solid-phase EIA with EIA Expansion Kits, available from BD Biosciences (formerly Pharmingen), in accordance with the manufacturer's instructions.

[3] = OvA/Alum, 0.1 μg/kg per os, OvA 0 μg/ml
[4] = OvA/Alum, 0.1 μg/kg per os, OvA 10 μg/ml
[5] = OvA/Alum, 0.1 μg/kg per os, OvA 25 μg/ml
[6] = OvA/Alum, 0.1 μg/kg per os, OvA 50 μg/ml
[7] = OvA/Alum, 0.1 μg/kg per os, OvA 100 μg/ml
[8] = OvA/Alum, 1.0 μg/kg per os, OvA 0 μg/ml
[9] = OvA/Alum, 1.0 μg/kg per os, OvA 10 μg/ml
[10] = OvA/Alum, 1.0 μg/kg per os, OvA 25 μg/ml
[11] = OvA/Alum, 1.0 μg/kg per os, OvA 50 μg/ml
[12] = OvA/Alum, 1.0 μg/kg per os, OvA 100 μg/ml
[13] = OvA/Alum, 10.0 μg/kg per os, OvA 0 μg/ml
[14] = OvA/Alum, 10.0 μg/kg per os, OvA 10 μg/ml
[15] = OvA/Alum, 10.0 μg/kg per os, OvA 25 μg/ml
[16] = OvA/Alum, 10.0 μg/kg per os, OvA 50 μg/ml
[17] = OvA/Alum, 10.0 μg/kg per os, OvA 100 μg/ml
[18] = OvA/Alum, 0.1 μg/kg i/p, OvA 10 μg/ml
[19] = OvA/Alum, 0.1 μg/kg i/p, OvA 25 μg/ml
[20] = OvA/Alum, 0.1 μg/kg i/p, OvA 50 μg/ml
[21] = OvA/Alum, 0.1 μg/kg i/p, OvA 100 μg/ml
[22] = OvA/Alum, 1.0 μg/kg i/p, OvA 25 μg/ml
[23] = OvA/Alum, 1.0 μg/kg i/p, OvA 50 μg/ml
[24] = OvA/Alum, 1.0 μg/kg i/p, OvA 100 μg/ml

With `N[C@H](CCC(=O)N[C@@H](Cc1c[nH]c2ccccc12)C(=O)O)C(=O)O` [SCV-07, γ-D-glutamyl-L-tryptophan] the activity at 0.0001 mg/kg [1, 3] was 100%, the activity at 0.0001 mg/kg [1, 4] was 124% and the activity at 0.0001 mg/kg [1, 5] was 150%. For the same compound, the activity at 0.0001 mg/kg [1, 6] was 150%, the activity at 0.0001 mg/kg [1, 7] was 158% and the activity at 0.001 mg/kg [1, 8] was 100%. For the same compound, the activity at 0.001 mg/kg [1, 9] was 98.3%, the activity at 0.001 mg/kg [1, 10] was 103% and the activity at 0.001 mg/kg [1, 11] was 103%. It also gave an activity at 0.001 mg/kg [1, 12] of 122%, an activity at 0.01 mg/kg [1, 13] of 100% and an activity at 0.01 mg/kg [1, 14] of 47.9%. For the same compound, the activity at 0.01 mg/kg [1, 15] was 119%, the activity at 0.01 mg/kg [1, 16] was 119% and the activity at 0.01 mg/kg [1, 17] was 140%. It also gave an activity at 0.0001 mg/kg ([1]; OvA/FA, 0.1 μg/kg per os, OvA 0 μg/ml) of 100%, an activity at 0.0001 mg/kg ([1]; OvA/FA, 0.1 μg/kg per os, OvA 10 μg/ml) of 119% and an activity at 0.0001 mg/kg ([1]; OvA/FA, 0.1 μg/kg per os, OvA 25 μg/ml) of 121%. It also gave an activity at 0.0001 mg/kg ([1]; OvA/FA, 0.1 μg/kg per os, OvA 50 μg/ml) of 142%, an activity at 0.0001 mg/kg ([1]; OvA/FA, 0.1 μg/kg per os, OvA 100 μg/ml) of 136% and an activity at 0.001 mg/kg ([1]; OvA/FA, 1.0 μg/kg per os, OvA 0 μg/ml) of 100%. For the same compound, the activity at 0.001 mg/kg ([1]; OvA/FA, 1.0 μg/kg per os, OvA 10 μg/ml) was 128%, the activity at 0.001 mg/kg ([1]; OvA/FA, 1.0 μg/kg per os, OvA 25 μg/ml) was 87.3% and the activity at 0.001 mg/kg ([1]; OvA/FA, 1.0 μg/kg per os, OvA 50 μg/ml) was 116%. The activity at 0.001 mg/kg ([1]; OvA/FA, 1.0 μg/kg per os, OvA 100 μg/ml) was 113%, the activity at 0.01 mg/kg ([1]; OvA/FA, 10.0 μg/kg per os, OvA 0 μg/ml) was 100% and the activity at 0.01 mg/kg ([1]; OvA/FA, 10.0 μg/kg per os, OvA 10 μg/ml) was 83.7%. For the same compound, the activity at 0.01 mg/kg ([1]; OvA/FA, 10.0 μg/kg per os, OvA 25 μg/ml) was 66.2%, the activity at 0.01 mg/kg ([1]; OvA/FA, 10.0 μg/kg per os, OvA 50 μg/ml) was 75.9% and the activity at 0.01 mg/kg ([1]; OvA/FA, 10.0 μg/kg per os, OvA 100 μg/ml) was 74.8%. The “Production of IFN-γ by splenocytes” value ([1]; OvA/Alum, 0.1 μg/kg i/p, OvA 0 μg/ml) was 9365 pg/mL, the “Production of IFN-γ by splenocytes” value [1, 18] was 8816 pg/mL and the “Production of IFN-γ by splenocytes, % (% of control)” value (“Production of IFN-γ … (% of control)” for short) [1, 18] was 94.1%. The “Production of IFN-γ by splenocytes” value [1, 19] was 8028 pg/mL, the “Production of IFN-γ … (% of control)” value [1, 19] was 85.7% and the “Production of IFN-γ by splenocytes” value [1, 20] was 8028 pg/mL. The “Production of IFN-γ … (% of control)” value [1, 20] was 85.7%, the “Production of IFN-γ by splenocytes” value [1, 21] was 8048 pg/mL and the “Production of IFN-γ … (% of control)” value [1, 21] was 85.9%. The “Production of IFN-γ by splenocytes” value [1, 3] was 4642 pg/mL, the “Production of IFN-γ by splenocytes” value [1, 4] was 5775 pg/mL and the “Production of IFN-γ by splenocytes” value [1, 5] was 6969 pg/mL. The “Production of IFN-γ by splenocytes” value [1, 6] was 6969 pg/mL, the “Production of IFN-γ by splenocytes” value [1, 7] was 7310 pg/mL and the “Production of IFN-γ by splenocytes” value ([1]; OvA/Alum, 1.0 μg/kg i/p, OvA 0 μg/ml) was 7129 pg/mL. The “Production of IFN-γ by splenocytes” value ([1]; OvA/Alum, 1.0 μg/kg i/p, OvA 10 μg/ml) was 9986 pg/mL, the “Production of IFN-γ by splenocytes” value [1, 22] was 7982 pg/mL and the “Production of IFN-γ … (% of control)” value [1, 22] was 112.0%. The “Production of IFN-γ by splenocytes” value [1, 23] was 7982 pg/mL, the “Production of IFN-γ … (% of control)” value [1, 23] was 112.0% and the “Production of IFN-γ by splenocytes” value [1, 24] was 8155 pg/mL. The “Production of IFN-γ … (% of control)” value [1, 24] was 114.4%, the “Production of IFN-γ by splenocytes” value [1, 8] was 5620 pg/mL and the “Production of IFN-γ by splenocytes” value [1, 9] was 5523 pg/mL. The “Production of IFN-γ by splenocytes” value [1, 10] was 5795 pg/mL, the “Production of IFN-γ by splenocytes” value [1, 11] was 5795 pg/mL and the “Production of IFN-γ by splenocytes” value [1, 12] was 6860 pg/mL. For the same compound, the “Production of IFN-γ by splenocytes” value [1, 13] was 4266 pg/mL, the “Production of IFN-γ by splenocytes” value [1, 14] was 2045 pg/mL and the “Production of IFN-γ by splenocytes” value [1, 15] was 5066 pg/mL. The “Production of IFN-γ by splenocytes” value [1, 16] was 5066 pg/mL, the “Production of IFN-γ by splenocytes” value [1, 17] was 5976 pg/mL and the “Production of IFN-γ … (% of control)” value ([1]; OvA/FA, 0.1 μg/kg i/p, OvA 10 μg/ml) was 126.6%. For the same compound, the “Production of IFN-γ … (% of control)” value ([1]; OvA/FA, 0.1 μg/kg i/p, OvA 25 μg/ml) was 89.3%, the “Production of IFN-γ … (% of control)” value ([1]; OvA/FA, 0.1 μg/kg i/p, OvA 50 μg/ml) was 118.0% and the “Production of IFN-γ … (% of control)” value ([1]; OvA/FA, 0.1 μg/kg i/p, OvA 100 μg/ml) was 124.3%. The “Production of IFN-γ … (% of control)” value ([1]; OvA/FA, 1.0 μg/kg i/p, OvA 10 μg/ml) was 139.0%, the “Production of IFN-γ … (% of control)” value ([1]; OvA/FA, 1.0 μg/kg i/p, OvA 25 μg/ml) was 112.2% and the “Production of IFN-γ … (% of control)” value ([1]; OvA/FA, 1.0 μg/kg i/p, OvA 50 μg/ml) was 99.0%. For the same compound, the “Production of IFN-γ … (% of control)” value ([1]; OvA/FA, 1.0 μg/kg i/p, OvA 100 μg/ml) was 89.6%, the activity at 0.0001 mg/kg ([2]; OvA 0 μg/ml) was 100% and the activity at 0.0001 mg/kg ([2]; OvA 10 μg/ml) was 118%. The activity at 0.0001 mg/kg ([2]; OvA 25 μg/ml) was 105%, the activity at 0.0001 mg/kg ([2]; OvA 50 μg/ml) was 132% and the activity at 0.0001 mg/kg ([2]; OvA 100 μg/ml) was 129%. It also gave an activity at 0.001 mg/kg ([2]; OvA 0 μg/ml) of 100%, an activity at 0.001 mg/kg ([2]; OvA 10 μg/ml) of 128% and an activity at 0.001 mg/kg ([2]; OvA 25 μg/ml) of 112%. For the same compound, the activity at 0.001 mg/kg ([2]; OvA 50 μg/ml) was 110%, the activity at 0.001 mg/kg ([2]; OvA 100 μg/ml) was 109% and the activity at 0.01 mg/kg ([2]; OvA 0 μg/ml) was 100%. It also gave an activity at 0.01 mg/kg ([2]; OvA 10 μg/ml) of 138% and an activity at 0.01 mg/kg ([2]; OvA 25 μg/ml) of 156%.
